From patent US4877790A, “Quinazoline derivative, processes for its production, and cerebral dysfunction remedying agent comprising it as active ingredient” (Kanebo Limited, priority 1987, dated 1989) come the findings set out here.

Structures can show the parent of a compound that is named as a salt.

Test [1] concerns normobaric hypoxia, male mice of the ddY strain. The test can be described thus: Anti-hypoxic activity: brain protection against normobaric hypoxia (survival time). The class given is in vivo. To be noted: oral, Table 3. As to the method: (2) Brain protection against normobaric hydpoxia
Male mice of the ddY strain (body weight 20-25g, 5 per group) were orally administered with the compound of the invention (dihydrochloride) dissolved in a 1% gum arabic solution. One hour after the adminstration, the mouse was put in a transparent plastic container (capacity 27 liters) through which 100% nitrogen was passed at a rate of 80 liters/min. The time elasped until the animal died (the survival time) was measured, and compared with that obtained with the control group (the group to which 1% gum arabic solution was administered).

Test [2] concerns deficit of memory induced by scopolamine hydrobromide, male mice of the ddY strain. The test can be described thus: Anti-scopolamine-induced amnesia activity (one-trial passive avoidance response). The class given is in vivo. To be noted: i.p. and p.o., Table 5. The method, then: Anti-scopolamine-induced amnesia activity:
Male mice of the ddY strain (body weight 20-25g, 20 per group) were used, and the activity of the test compound on deficit of memory induced by scopolamine hydrobromide (a muscarinic acetylcholine receptor antagonist) was examined using one-trial passive avoidance response as an index.
Using the same experimental device as in Test Example 1, the same acquisition trial and retrieval trial as in Test Example 1 were carried out (one-trial passive avoidance response.)
Scopolamine hydrobromide (1 mg/kg) was intraperitoneally (i.p.) administered to the animals 20 minutes before the acquisition trial. The compound of the invention (dihydrochloride) was dissolved in 1 % gum arabic solution, and intraperitoneally adminstered immediately after the acquisition trial, and orally (p.o.) administered 60 minutes before the acquisition trial.
A 1% solution of gum arabic was administered to the control group.

The subject of test [3] is carbon dioxide-induced amnesia, male mice of the ddY strain. Briefly: Anti-CO2-induced amnesia activity (one-trial passive avoidance response). The class given is in vivo. To be noted: oral, Table 1. The method, then:
Anti-CO2 -induced amnesia activity (the activity of remedying hypoxia-induced deficits in learning and memory):
Male mice of the ddY strain (body weight 20-30 g, 30 per group) were used. Anti-CO2 -induced amnesia activity was determined by using one-trial passive avoidance response as an index.
The experimental device consisted of two compartments, one illuminated and the other dark, with a guillotine door in the boundary of the two compartments permitting free passage of the mice through it.
In an acquisition trial, a mouse was placed in the illuminated compartment and allowed to enter the dark one. As soon as the mouse entered the dark compartment, the door was shut, and an electrical shock (0.5 mA, 0.2 sec.) was applied through the grid floor. Thus, the mouse was caused to learn that it receives an electric shock upon entering the dark room. In a retrieval trial, the mouse was again placed in the illuminated compartment 24 hours after the acquisition trial, and the time elapsed until it entered the dark compartment (response latency) was measured to an extent of 300 seconds at the longest. (One-trial passive avoidance response). […]

Test [4] relates to complete ischemia by decapitation, male mice of the ddY strain. Briefly: Anti-hypoxic activity: brain protection against complete ischemia by decapitation (gasping persistent time). The class given is in vivo. Particulars: oral, Table 2. The method, then: (1) Brain protection against complete ischemia by decapitation:
Male mice of the ddY strain (body weight 20-25 g, 5 per group) were orally given the compound of the invention (dihydrochloride) dissolved in 1% gum arabic solution. One hour later, the mice were decapitated, and the time elapsed until a gasping-like mouth opening movement appearing after decapitation ceased (gasping persistent time) was measured, and compared with that obtained with the control group (the group to which 1% gum arabic solution was administered.

Test [5] has as its system formation of lipid peroxide by autoxidation (brain homogenate). The test can be described thus: Lipid peroxide formation inhibiting activity (antioxidant activity), MDA in brain homogenate. The class given is biochemical, rats. Particulars: for Antioxidant activity (percent inhibition of autoxidation): 37° C. 30 minutes, n = 4, mean ± standard error. As to the method: Lipid peroxide formation inhibiting activity (antioxidant activity):
The effect of the test compound on the formation of lipid peroxide by autoxidation was determined by the amount of malondialdehyde (MDA) formed.
Rats were decapitated, and the cerebrum was taken out and homogenized with 4 ml, per gram of the cerebrum, of 50 mM phosphate saline-buffer (pH 7.4) and centrifuged (2800 rpm, 10 minutes). The supernatant was taken into a 10 ml test tube to obtain a brain homogenate. It was frozen at -70° C. and stored.
The brain homogenate was defrozen, and immediately then, diluted to 10-fold with the aforesaid phosphate saline-buffer. A 2 ml portion of the dilution was taken into a 10 ml test tube cooled with ice, and used to measure its antioxidant activity. Twenty microliters of an aqueous solution of the compound of this invention (dihydrochloride) was added. The amount of MDA immediately after the addition was measured as shown below (MDA0 time). The mixture was incubated at 37° C. for 30 minutes. […] After cooling with ice, the cooled mixture was centrifuged (2800 rpm, 10 minutes). To 1 ml of the supernatant, 0.5 ml of 0.5 % thiobarbituric acid solution dissolved in 50% acetic acid solution was added, and the mixture was heated at 100° C. for 15 minutes. After cooling with ice, the absorbance of the solution at 532 nm was measured, and the amount of MDA formed was determined (MDA test).
As a control, the amount of MDA (MDAcont) was determined as above.
The antioxidant activity of the compound of the invention was expressed in terms of percent inhibition of autoxidation on the brain homogenate. The calculation was based on the following equation. [formula]

As to `C=CCN1CCN(c2nc(OCCCCC)c3ccccc3n2)CC1` [Compound of the invention (2HCl), 2-(4-allyl-l-piperazinyl)-4-pentyloxyquinazoline dihydrochloride], in test [1], the “activity of prolonging the survival time (in words)” value is given as “showed a significant activity of prolonging the survival time”. Further, in test [2], the “anti-scopolamine-induced amnesia activity (in words)” value is listed as “showed a significant anti-scopolamine-induced amnesia activity”. Further, in test [3], the “anti-carbon dioxide induced amnesia activity (in words)” value is listed as “showed a significant anti-carbon dioxide induced amnesia activity”. The “activity of prolonging the gasping persistent time (in words)” value in test [4] was “showed a significant activity of prolonging the gasping persistent time”. Also, the “Antioxidant activity (percent inhibition of autoxidation)” value is on record as 6.4 ± 7.7% in test [5] (10 μM), 27.1 ± 6.8% in test [5] (30 μM), 77.9 ± 3.1% in test [5] (100 μM) and 93.4 ± 2.2% in test [5] (300 μM). In test [5] (Table 4), the “activity of inhibiting formation of lipid peroxide (antioxidant activity) (in words)” value is on record as “showed the activity of inhibiting formation of lipid peroxide”.
